# Reference: patent publication US20080234368A9, “Therapeutic compositions and methods of use” (Trustees of Dartmouth College, priority 1998, published 2008)
# System: COX-2
# Assay: Western blot for IL-1β-induced COX-2 protein in 18Co colon myofibroblasts
# Format: cell-based, human
# Settings: 18Co cells, IL-1β 30 pg/ml
# Experimental: FIG. 14(A) illustrates Western blots; primary mouse macrophages; IFN-γ, 10 ng/ml; LPS, 2 ng/ml were added to cultures together with triterpenoids or dexamethasone (concentrations shown as […]); cells were harvested at 12 h. FIG. 14(B) illustrates Northern blots, RAW 264.7 macrophage-like cell line. IFN-γ, 10 ng/ml; LPS, 1 ng/ml; TNF-α, 10 ng/ml, were added to cultures together with CDDO or dexamethasone. RNA prepared after 12 h; GAPDH used as a loading control. FIG. 14(C) illustrates suppression of production of NO and PGEF in primary macrophages. For NO studies, cells were treated with IFN-γ, 10 ng/ml, together with CDDO (M), dexamethasone (O), TP-82 (□), or oleanolic acid (A). After 48 h, supernatants were analyzed for NO by the Griess reaction. For PGEF studies, cells were treated with IFN-γ, 5 ng/ml, and LPS, 5 ng/ml, together with the same set of inhibitors. After 48 h, PGE was measured in supernatants by immunoassay. Control values (no inhibition) for NO and PGE2 were 4.7 nmol/[…] and 2.2 ng/ml/2×10^5 cells, respectively. FIGS. (14D) and (14E) illustrate (human colon myofibroblasts) ^18Co cells grown in MEM/10% FBS; other methods are the same as reported above for macrophages. FIG. 14(D) illustrates Northern blots showing dose-response for suppression of COX-2 mRNA after induction with IL-1β (30 pg/ml). CDDO was added together with IL-1. […]
structure (smiles),measurement,value
"CC1(C)CC[C@]2(C(=O)O)CC[C@]3(C)[C@H](C(=O)C=C4[C@@]5(C)C=C(C#N)C(=O)C(C)(C)[C@@H]5CC[C@]43C)[C@@H]2C1 [Compound 6, 2-cyano-3,12-dioxoolean-1,9-dien-28-oic acid]",induction of COX-2 protein,blocked induction
